According to article PMC9572521, “Synthesis, Docking Studies and Pharmacological Evaluation of Serotoninergic Ligands Containing a 5-Norbornene-2-Carboxamide Nucleus” (Molecules, 2022):
Entries after “also recorded” stand apart in the source; their conditions may differ. Read-outs that look alike come from different tables or passages of the source.

Columns and labels:
5-HT2A receptor = 5-HT2A receptor (Rattus norvegicus, UniProt P14842); experiment: 5-HT2A competition binding assay ([3H]ketanserin, frontal cortex homogenates)
Sequence of 5-HT2A receptor (P14842 whole entry): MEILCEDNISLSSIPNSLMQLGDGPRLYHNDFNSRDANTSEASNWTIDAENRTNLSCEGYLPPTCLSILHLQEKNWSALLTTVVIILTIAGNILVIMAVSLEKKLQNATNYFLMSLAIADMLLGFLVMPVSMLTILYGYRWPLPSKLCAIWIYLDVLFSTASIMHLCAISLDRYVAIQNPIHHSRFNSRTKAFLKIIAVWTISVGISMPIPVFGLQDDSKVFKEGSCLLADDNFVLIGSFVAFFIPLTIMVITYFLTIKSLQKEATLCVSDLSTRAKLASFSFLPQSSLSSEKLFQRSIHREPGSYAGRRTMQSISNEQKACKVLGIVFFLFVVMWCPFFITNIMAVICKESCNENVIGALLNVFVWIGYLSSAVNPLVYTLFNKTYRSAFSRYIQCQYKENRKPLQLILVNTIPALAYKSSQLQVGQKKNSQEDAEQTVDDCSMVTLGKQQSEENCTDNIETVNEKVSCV

D2 receptor = biological target: T1, D2 receptor (Rattus norvegicus, UniProt P61169); experiment: Functional D2 receptor [35S]GTPγS assay (antagonist mode vs dopamine; basal for agonism); assay type: biochemical; conditions: against 40 µM dopamine, rat striatal homogenate; read-out: D2 receptor antagonistic activity IC50 (95% CI);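 note: [35S]GTPγS binding counted by scintillation after 60 min at 30 °C, nonspecific binding defined with 100 µM unlabeled GTPγS, inhibition curves fitted by one-site nonlinear regression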
T1 construct: 15μg/mL of striatal homogenate was incubated in triplicate; from tissue; host or cells: rat striatum homogenate
T1 sequence (P61169 whole entry): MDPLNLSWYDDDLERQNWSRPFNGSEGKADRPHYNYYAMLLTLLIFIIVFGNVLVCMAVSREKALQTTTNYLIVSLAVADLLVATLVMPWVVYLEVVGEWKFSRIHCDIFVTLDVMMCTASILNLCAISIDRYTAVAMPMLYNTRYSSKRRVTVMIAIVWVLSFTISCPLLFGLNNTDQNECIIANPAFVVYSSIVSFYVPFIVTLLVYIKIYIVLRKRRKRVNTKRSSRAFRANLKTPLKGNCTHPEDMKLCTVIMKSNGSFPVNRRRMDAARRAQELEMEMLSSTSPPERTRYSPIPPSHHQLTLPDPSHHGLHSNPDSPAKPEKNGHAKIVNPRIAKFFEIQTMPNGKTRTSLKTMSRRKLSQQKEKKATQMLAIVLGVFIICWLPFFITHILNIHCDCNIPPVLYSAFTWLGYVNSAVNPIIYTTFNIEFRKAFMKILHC

human 5-HT2C receptor = biological target: T2, human 5-HT2C receptor (Homo sapiens, UniProt P28335); experiment: 5-HT2C competition binding assay ([3H]mesulergine, transfected cell membranes); conditions: [3H]mesulergine, human 5-HT2C membranes; read-out: 5-HT2C Ki (95% CI)
T2 sequence (P28335 33-458): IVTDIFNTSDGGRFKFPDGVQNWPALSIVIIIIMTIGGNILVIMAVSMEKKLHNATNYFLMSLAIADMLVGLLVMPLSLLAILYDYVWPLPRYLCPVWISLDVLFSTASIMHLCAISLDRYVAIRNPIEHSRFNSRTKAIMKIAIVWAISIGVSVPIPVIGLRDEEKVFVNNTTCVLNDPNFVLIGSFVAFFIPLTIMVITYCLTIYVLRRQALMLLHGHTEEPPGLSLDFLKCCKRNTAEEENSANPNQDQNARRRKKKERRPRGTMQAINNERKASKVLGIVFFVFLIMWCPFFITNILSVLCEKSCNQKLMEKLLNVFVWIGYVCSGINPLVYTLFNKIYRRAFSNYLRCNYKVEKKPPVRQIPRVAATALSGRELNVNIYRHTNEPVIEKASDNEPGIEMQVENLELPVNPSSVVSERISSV

[1] = test system: 5-HT2A receptors (5-HT-induced contractions in the rat ileum); experiment: 5-HT-evoked contractions of isolated rat ileum; conditions: 5-HT 10^−5 M; compounds 10^−8–10^−5 M
mice [2] = experiment: Spontaneous locomotor activity; assay type: in vivo, mouse
mice [3] = experiment: Rota-rod test (motor coordination); assay type: in vivo, mouse; conditions: 30 mg/kg i.p., 60 min before the test
Description: (§1) The experiments were carried out, in the Experimental Medicine Center of Medical University of Lublin, on six-week-old naive male Swiss mice, weighing 24–30 g. The mice were housed in cages, five individuals per cage in an environmentally controlled rooms (ambient temperature 22 ± 1 °C; relative humidity 50–60%; 12 h light/dark cycle, lights on at 8:00). Standard laboratory food(LSM-Agropol-Motycz, Lublin, Poland) and filtered water were available ad libitum. All the experimental procedures were carried out, according to the National Institute of Health Guidelines for the Care and Use of Laboratory Animals and to the European Community Council Directive for the Care and Use of Laboratory Animals of 22 September 2010 (2010/63/EU) and approved by the Local Ethics Committee for Animal Experimentation in Lublin. The investigated compounds (Norbo-4, Norbo-8, Norbo-10, Norbo-14, Norbo-18 and Norbo-20) in all tests were administered intraperitoneally (i.p.), dissolved in dimethyl sulfoxide (DMSO, final concentration of 0.1%) and then diluted by aqueous solution of 0.5% methylcellulose (tylose) and injected 60 min before the tests. […] All compounds were given in a volume of 10 mL/kg to mice. The control animals received an equivalent volume of the solvent at the respective time before the tests. All the experiments were conducted in the light phase between 09.00 a.m. and 14.00 p.m. The experiments were performed by an observer unaware of the treatment administered. The effects of investigated compounds on motor coordination were evaluated in the rota-rod and chimney tests. In the first test, motor impairments were measured, defined as the inability to keep balance on a rotating rod (at constant speed of 18 rpm) for 1 min. In the second test, motor impairments were assessed by mouse inability to climb up the tube backwards (3 cm in inner diameter, 25 cm long) within 60 s. Before the tests, the animals were trained once a day for 3 days. The animals able to stay on the rotating rod or to leave the chimney for 60 s were approved for experiments.

5-HT1A receptor = biological target: T3, 5-HT1A receptor (Rattus norvegicus, UniProt P19327); experiment: Functional 5-HT1A receptor [35S]GTPγS assay (agonist mode); assay type: biochemical; conditions: [35S]GTPγS, rat hippocampus homogenate;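 note: male Sprague-Dawley rat hippocampal membranes incubated 90 min at 37 °C, bound label counted by scintillation after filtration, non-specific binding defined with 100 µM unlabeled GTPγS, one-site curve fit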
T3 construct: 15 μg/mL of hippocampus homogenate was incubated in triplicate with 0.8 nM; from tissue; host or cells: rat hippocampus homogenate
T3 sequence (P19327 1-422): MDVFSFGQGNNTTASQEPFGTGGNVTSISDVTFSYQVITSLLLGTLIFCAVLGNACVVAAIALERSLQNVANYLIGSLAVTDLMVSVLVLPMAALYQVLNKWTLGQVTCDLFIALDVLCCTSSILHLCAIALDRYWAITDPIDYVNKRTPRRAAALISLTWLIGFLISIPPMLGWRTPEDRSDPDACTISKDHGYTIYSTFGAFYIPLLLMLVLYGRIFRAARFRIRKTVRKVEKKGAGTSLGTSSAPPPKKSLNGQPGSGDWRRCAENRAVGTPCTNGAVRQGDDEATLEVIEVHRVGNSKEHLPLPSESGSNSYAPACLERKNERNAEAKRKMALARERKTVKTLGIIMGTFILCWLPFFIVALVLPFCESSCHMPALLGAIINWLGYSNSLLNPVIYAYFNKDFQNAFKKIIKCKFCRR

mice [4] = experiment: Chimney test (motor coordination); assay type: in vivo, mouse; conditions: 30 mg/kg i.p., 60 min before the test
Description: as §1

mice [5] = experiment: Forced swim test (FST, Porsolt's test); assay type: in vivo, mouse; conditions: 15 mg/kg i.p., 60 min before the test
Description: as §1, with “The experiment was carried out according to the method” for “The effects”, “of Porsolt et al.. Mice were individually placed in a glass cylinder (25 cm high; 10 cm in diameter) containing water maintained at 23–25 °C, and were left there for 6 min. The total duration of immobility was recorded during the last 4 min of a 6-min test session. A mouse was regarded as immobile when it remained floating” for “of investigated compounds”, “on” for “on motor coordination were evaluated in”, “the water, making only small movements” for “the rota-rod and chimney tests. In the first test, motor impairments were measured, defined as the inability”, “keep its head above” for “keep balance on a rotating rod (at constant speed of 18 rpm) for 1 min. In”, “the water.” for “the second test, motor impairments were assessed by mouse inability to climb up the tube backwards (3 cm in inner diameter, 25 cm long) within 60 s. Before the tests, the animals were trained once a day for 3 days. The animals able to stay on the rotating rod or to leave the chimney for 60 s were approved for experiments.”

[6] = 30 mg/kg i.p., after 6 min of observation
[7] = 30 mg/kg i.p., after 20 min of observation

Row | SMILES | Ki (5-HT2A receptor; read-out: 5-HT2A Ki (95% CI)) | IC50 (D2 receptor) | Ki (human 5-HT2C receptor) | Emax, maximal inhibitory effect on 5-HT-induced contractions in the rat ileum [1] | spontaneous locomotor activity (mice [2]; 15 mg/kg i.p., after 20 min of observation) | spontaneous locomotor activity (mice [2]; [6]) | spontaneous locomotor activity (mice [2]; [7]) | time on rota-rod (mice [3]) | 5-HT1A Receptor G-Protein Stimulation pEC50 (5-HT1A receptor; ± SEM) | time in chimney (mice [4]) | Ki (5-HT2A receptor; ± SEM, read-out: 5-HT2A pKi (converted)) | 5-HT1A Receptor G-Protein Stimulation Emax (%) ± SEM (5-HT1A receptor) | EC50 (5-HT1A receptor; read-out: 5-HT1A Receptor G-Protein Stimulation EC50 (95% CI)) | immobility time in FST (mice [5])
1 | O=C(NCCCN1CCN(c2ccc(Cl)c(Cl)c2)CC1)C1CC2C=CC1C2 (stereo not drawn) [Norbo-14, endo-N-(3-(4-(3,4-dichlorophenyl)piperazin-1-yl)propyl)bicyclo[2.2.1]hept-5-ene-2-carboxamide] | 0.0179 µM | 41.1 µM | 3.64 µM | 22.57% | significant decrease in locomotor activity | significant decrease in locomotor activity | significant decrease in locomotor activity | decreased also time on rota-rod; also recorded: impaired motor coordination | no activity | significant increase of time in chimney; also recorded: disturbed the behavior of mice | – | – | – | –
2 | O=C(NCCCN1CCN(c2ccc(F)cc2)CC1)C1CC2C=CC1C2 (stereo not drawn) [Norbo-18, endo.-N-(3-(4-(4-fluorophenyl)piperazin-1-yl)propyl)bicyclo[2.2.1]hept-5-ene-2-carboxamide] | – | 82.9 µM | 0.212 µM | 25.28% | – | significant decrease in locomotor activity | significant decrease in locomotor activity | decreased also time on rota-rod; also recorded: impaired motor coordination | – | significant increase of time in chimney; also recorded: disturbed the behavior of mice | 0.0186 µM | 143 ± 5.1 ^&&& % | 2.32 µM | significant reduction in immobility time; also recorded: significant reduction of immobility time
